According to patent US5606038A, “Amphiphilic polyene macrolide antibiotic compounds” (Competitive Technologies, Inc., priority 1995, dated 1997):
Values after ≈ are worked out from the molar mass of the structure shown. Where two headings read alike, the source gives them in different places.

What was measured:
Candida albicans [1] = assay: minimum inhibitory concentration, Candida albicans, broth microdilution; type: cell-based; details: 24 h, 37° C.
Procedure: ^c minimum inhibitory concentration (see Example IV); three different
strains of Candida albicans were tested; all tests were done in broth
microdilution in yeast nitrogen baseglucose at 37° C. for 24 hours
the initial inoculum was 1 × 10^4 blastospores per ml
The minimum inhibitory concentration reported in Table I was obtained, and further confirmed as reported in Table II, by the methods described in the following Example IV.
(§1) Microorganism inocula was harvested from one to five day old cultures grown on Sabourand's dextrose agar. After two washes with sterile saline, the inocula were counted utilizing a hemacytometer and diluted or concentrated as required to 1×10^4 blastospores per ml. Sterile molten agar (at 50° C.) was inoculated, allowed to cool, and 10 mm diameter discs impregnated (from […] stock solutions) with each of the test compounds was placed on the surface of the agar. Zones of inhibition were measured after incubating the plates at 30° C. for 24-48 hours.
(§2) The compounds were then screened against three strains of three species of microorganisms: Candida albicans, Cryptococcus neoformans, and Aspergillus fumigatus using a conventional double dilution technique. All tests reported in Table II were done by broth microdilution in yeast nitrogen base-glucose using an inoculum of 1×10^4 blastospores per ml; the cultures were incubated at 37° C. for 24 hours, and the minimum concentration (in μg/ml) that prevents visible growth was recorded as the minimum inhibitory concentration.

Aspergillus fumigatus = assay: minimum inhibitory concentration, Aspergillus fumigatus, broth microdilution; type: cell-based; details: 24 h, 37° C.
Procedure: as §1, §2

[2] = system: Candida albicans (isolate NIH A); assay: MIC against infecting isolate of Example V; type: cell-based; details: 24 and 48 hours
solubility in water = type: physicochemical
[3] = UV-vis spectroscopy of interaction with ergosterol-containing large unilamellar vesicles; details: Example II: 2.6 μM; 1 mM egg phosphatidyl choline and 0.5 mM ergosterol; 20 minutes, 23° C.
Description: (§3) In order to confirm that the poly(ethylene glycol)conjugates of the present invention retain their ability to recognize ergosterol-rich bilayers, their interaction with sterol-containing large unilamellar vesicles (1000 A diameter, LUVs) by UV-vis spectroscopy using published techniques [see J. Am. Chem. Soc. 115:708 (1993)]. […] Thus, the poly(ethylene glycol) conjugates according to the present invention recognize ergosterol-rich bilayers in a way that is similar to Amphotericin B.

[4] = system: Cryptococcus neoformans (isolate NIH C-1); assay: survival of mice infected with Cryptococcus neoformans (Example VI); type: in vivo, Cryptococcus neoformans in ICR mice; details: 30 mg/kg i.p. once per day
Description: Ten immunocompetent ICR mice weighing 30 g each in two groups were inoculated intravenously with 255 colony forming units of Cryptococcus neoformans (isolate NIH C-1) per mouse.

[5] = system: Candida albicans (isolate NIH A); assay: survival of mice infected with Candida albicans (Example V); type: in vivo, Candida albicans in ICR mice; details: i.p. once per day for ten days, Example II 30 mg/kg, Amphotericin B 1 mg/kg
Description: Ten immunocompetent ICR mice weighing 30 g each in three groups were inoculated intravenously with 3.2×10^6 colony forming units of Candida albicans (isolate NIH A) per mouse.

[6] = system: Cryptococcus neoformans (isolate NIH C-1); assay: MIC against infecting isolate of Example VI; type: cell-based
[7] = critical micelle concentration in PBS by molar absorptivity at 409 nm; type: physicochemical; details: PBS (pH 7.4), 37° C.
Description: In its monomeric state, Amphotericin B has a characteristic absorption band at 409 nm; upon aggregation, however, its apparent molar absorptivity decreases in magnitude [see Biochemistry 30:5707 (1991)]. Thus, by measuring its molar absorptivity as a function of the reciprocal of the macrolide concentration, one can estimate the critical micelle concentration. This can be shown mathematically by allowing T, m and P to represent the total, monomeric, and micellar concentrations (i.e. the concentration of the drug that is present in micellar form) of the macrolide, respectively, and if ε represents the apparent molar absorptivity and εm and εp are the molar absorptivity for the monomeric and micellar components, respectively, then it can be shown that ε=εp +(εm -εp)m/T. At concentrations in excess of the critical micelle concentration, m is a constant and ε is inversely proportional to T.
Using the method described previously, the critical micelle concentrations for Amphotericin B and the conjugates described in the preceding examples were determined and are reported in Table I describing the aggregation, antifungal and hemolytic properties of […] macrolide antibiotics (in μM amounts) according to the present invention.
^a critical micelle concentration was determined in PBS (pH 7.4) at […]

Candida albicans [8] = assay: K+ release from fungal cells; type: cell-based; details: 3×10^7 fungal cells/ml, read-out: concentration for releasing 50% of the K+ from fungal cells
[9] = UV-vis spectroscopy of interaction with cholesterol-containing large unilamellar vesicles; details: 2.6 μM; 1 mM egg PC and 0.5 mM cholesterol; 20 minutes, 23° C.
Description: as §3

[10] = hemolysis, 50% release of hemoglobin from human red blood cells; details: human, red blood cells

SMILES: COCCOCCOCCOCCOCCOCCNC(=O)[C@H]1[C@@H]2C[C@@H](O[C@@H]3O[C@H](C)[C@@H](O)[C@H](N)[C@@H]3O)/C=C/C=C/C=C/C=C/C=C/C=C/C=C/[C@H](C)[C@@H](O)[C@@H](C)[C@H](C)OC(=O)C[C@H](O)C[C@H](O)CC[C@@H](O)[C@H](O)C[C@H](O)C[C@](O)(C[C@@H]1O)O2 [Example II]
- MIC (Candida albicans [1]; C. albicans (1), read-out: minimum inhibitory concentration): 6.4 µg/mL
- MIC (Candida albicans [1]; C. albicans (2), read-out: minimum inhibitory concentration): 3.2 µg/mL
- MIC (Candida albicans [1]; C. albicans (3), read-out: minimum inhibitory concentration): 3.2 µg/mL
- MIC (Candida albicans [1]; three strains of Candida albicans, yeast nitrogen base-glucose, 1 × 10^4 blastospores per ml, read-out: MIC (minimum inhibitory concentration)): 2.7 µM
- MIC (Aspergillus fumigatus; A. fumigatus (1)): 6.4 µg/mL (≈ 5.33 µM)
- MIC (Aspergillus fumigatus; A. fumigatus (2)): 3.2 µg/mL (≈ 2.66 µM)
- MIC (Aspergillus fumigatus; A. fumigatus (3)): 3.2 µg/mL (≈ 2.66 µM)
- MIC ([2]; in DMSO and water): 3.03 µg/mL (≈ 2.52 µM)
- MIC ([2]; in water only): ≤ 6.06 µg/mL
- solubility (solubility in water): ≥ 10000 µg/mL
- absorption spectrum change with ergosterol-containing vesicles [3]: strong diminution in the monomer band at 409 nm and new bands at 415, 390 and 375 nm
- percent survival ([4]; day 9 post-infection): 100%
- percent survival ([4]; day 10 post-infection): 100%
- percent survival ([4]; day 13 post-infection): 100%
- percent survival ([4]; day 14 post-infection): 90%
- percent survival ([4]; day 15 post-infection): 90%
- percent survival ([4]; day 16 post-infection): 90%
- percent survival ([4]; day 17 post-infection): 90%
- percent survival ([4]; day 18 post-infection): 90%
- percent survival ([4]; day 19 post-infection): 90%
- percent survival ([4]; day 20 post-infection): 90%
- percent survival ([4]; day 21 post-infection): 90%
- percent survival ([4]; day 22 post-infection): 70%
- percent survival ([4]; day 25 post-infection): 70%
- percent survival ([4]; day 26 post-infection): 60%
- percent survival ([4]; day 27 post-infection): 60%
- percent survival ([4]; day 28 post-infection): 50%
- percent survival ([4]; day 29 post-infection): 50%
- percent survival ([4]; day 30 post-infection): 40%
- percent survival ([5]; day 2 post-infection): 100%
- percent survival ([5]; day 3 post-infection): 100%
- percent survival ([5]; day 4 post-infection): 100%
- percent survival ([5]; day 5 post-infection): 100%
- percent survival ([5]; day 6 post-infection): 100%
- percent survival ([5]; day 7 post-infection): 90%
- percent survival ([5]; day 30 post-infection): 90%
- MIC [6]: ≤ 6.06 µg/mL
- MIC ([6]; 48 h): 1.51 µg/mL (≈ 1.26 µM)
- MIC ([6]; 72 h): 3.03 µg/mL (≈ 2.52 µM)
- cmc (critical micelle concentration) [7]: 25 µM
- EC50 (Candida albicans [8]): 1000 nM
- absorption spectrum with cholesterol-containing vesicles [9]: essentially the same as that observed in the presence of egg phosphatidyl choline vesicles (without sterol)
- HC50 at 1 h [10]: 42 µM
